Laboratory results from patent US11261170B2, “Aromatic compound, pharmaceutical composition and use thereof” (Sichuan Kelun-Biotech Biopharmaceutical Co., Ltd., priority 2017, dated 2022).
Marks after values point to notes of the source that are not given here.

Experiments:
[1] = target: hERG potassium ion channel (Homo sapiens (Human), UniProt Q12809); assay: Predictor hERG fluorescence polarization; format: binding
Description: Test Example 5: In Vitro Safety Test
The effect of the compound on hERG potassium ion channel was tested by Predictor™ hERG fluorescence polarization.

[2] = target: T1, PPARα (Homo sapiens (Human), UniProt Q07869); assay: Activation of PPARα in genetically engineered CHO-K1 cells (PathHunter); format: cell-based; conditions: PathHunter CHO-K1 PPARα cell line, agonist format, 6 hours
From the text: (§1) Test Example 3: Experiment of Compounds on Activation of PPAR α, δ and γ in Genetically Engineered CHO-K1 Cells
(§2) Cell: PathHunter® CHO-K1 PPARα Protein Interaction Cell Line, PathHunter® CHO-K1 PPARδ Protein Interaction Cell Line and PathHunter® CHO-K1 PPARγ Protein Interaction Cell Line, provided by DiscoverX®.
(§3) Assay kit: PathHunter® Detection Kit, provided by DiscoverX®.
(§4) 1) Cell Handling: PathHunter NHR (nuclear hormone receptor, PPARα, δ, γ) cell lines were expanded from freezer stocks according to standard procedures. Cells were seeded in a total volume of 20 μL into white walled, 384-well microplates and incubated at 37° C., 5% CO2 for the appropriate time prior to testing. […]
(§5) 3) Signal detection: Assay signal was generated through a single addition of 12.5 or 15 μL (50% v/v) of PathHunter Detection reagent cocktail, followed by one-hour-incubation at room temperature. Microplates were read following signal generation with a PerkinElmer Envision™ instrument for chemiluminescent signal detection.
(§6) 4) Data analysis: Both compound activity and EC50S were analyzed using CBIS data analysis suite (ChemInnovation, CA). For agonist mode assays, percentage activity was calculated using the following formula: % Activity=100%×(mean RLU of test sample−mean RLU of vehicle control)/(mean MAX control ligand−mean RLU of vehicle control).
Target sequence in this assay (Q07869 whole entry): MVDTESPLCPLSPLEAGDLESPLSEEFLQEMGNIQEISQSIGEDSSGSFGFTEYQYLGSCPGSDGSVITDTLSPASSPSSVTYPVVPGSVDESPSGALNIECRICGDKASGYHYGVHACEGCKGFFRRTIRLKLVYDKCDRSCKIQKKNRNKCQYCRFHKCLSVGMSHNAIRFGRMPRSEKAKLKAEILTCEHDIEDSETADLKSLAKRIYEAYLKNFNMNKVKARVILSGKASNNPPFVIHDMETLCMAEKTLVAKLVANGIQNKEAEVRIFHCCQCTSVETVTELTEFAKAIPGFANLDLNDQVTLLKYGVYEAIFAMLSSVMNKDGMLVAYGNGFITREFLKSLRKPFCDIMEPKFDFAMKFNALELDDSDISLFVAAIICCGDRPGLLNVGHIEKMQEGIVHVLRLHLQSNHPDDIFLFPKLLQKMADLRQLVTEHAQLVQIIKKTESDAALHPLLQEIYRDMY

[3] = Cytotoxicity test on HEK293 cells (CellTiter Glo); format: cell-based; conditions: human, incubated for 3 days
Description: (§7) Test Example 4: Cytotoxicity Test of Compound on HepG2 & Hek293 Cells
(§8) Cells: human hepatocyte HepG2, purchased from ATCC; Human embryonic kidney cells HEK293: purchased from ATCC;
(§9) Assay reagent: CellTiter Glo® Luminescent Cell Viability Assay, purchased from Promega.
(§10) HepG2 and HEK293 cells were incubated in DMEM/F12 medium containing 10% of fetal bovine serum respectively. A proper amount of cells were plated into a 96-well plate, the plate was placed in an incubator overnight, and the culture medium was removed, and replaced with a complete culture medium containing the compound of the application, and incubated for 3 days. On day 4, an assay reagent CellTiter Glo was added to each well, and the relative luminous unit (RLU) of each well was determined by chemiluminescence. CC50 values of the compound of the application to HepG2 and HEK293 cells were calculated by GraphPad software, and the results were shown in Table 3.

[4] = target: PPARγ (Homo sapiens (Human), UniProt P37231); assay: Activation of PPARγ in genetically engineered CHO-K1 cells (PathHunter); format: cell-based; conditions: PathHunter CHO-K1 PPARγ cell line, agonist format, 6 hours
Chain of PPARγ (P37231 whole entry): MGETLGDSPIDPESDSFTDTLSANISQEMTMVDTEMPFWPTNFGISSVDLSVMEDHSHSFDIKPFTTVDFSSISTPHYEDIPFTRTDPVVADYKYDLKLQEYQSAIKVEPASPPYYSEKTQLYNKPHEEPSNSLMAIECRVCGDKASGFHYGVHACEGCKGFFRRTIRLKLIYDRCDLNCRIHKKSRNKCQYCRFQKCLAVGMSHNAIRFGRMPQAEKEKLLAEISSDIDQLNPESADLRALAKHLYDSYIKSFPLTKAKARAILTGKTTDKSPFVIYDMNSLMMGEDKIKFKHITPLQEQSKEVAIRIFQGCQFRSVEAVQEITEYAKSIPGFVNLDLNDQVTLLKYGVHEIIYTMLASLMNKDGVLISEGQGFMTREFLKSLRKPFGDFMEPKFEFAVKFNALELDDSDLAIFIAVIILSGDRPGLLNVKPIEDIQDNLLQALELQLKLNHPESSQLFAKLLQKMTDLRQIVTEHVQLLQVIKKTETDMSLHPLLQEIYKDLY
From the text: as §1, §2, §3, §4, §5, §6

[5] = target: T2, PPARδ (Homo sapiens (Human), UniProt Q03181); assay: Activation of PPARδ in genetically engineered CHO-K1 cells (PathHunter); format: cell-based; conditions: PathHunter CHO-K1 PPARδ cell line, agonist format, 6 hours
From the text: as §1, §2, §3, §4, §5, §6
Target sequence in this assay (Q03181 whole entry): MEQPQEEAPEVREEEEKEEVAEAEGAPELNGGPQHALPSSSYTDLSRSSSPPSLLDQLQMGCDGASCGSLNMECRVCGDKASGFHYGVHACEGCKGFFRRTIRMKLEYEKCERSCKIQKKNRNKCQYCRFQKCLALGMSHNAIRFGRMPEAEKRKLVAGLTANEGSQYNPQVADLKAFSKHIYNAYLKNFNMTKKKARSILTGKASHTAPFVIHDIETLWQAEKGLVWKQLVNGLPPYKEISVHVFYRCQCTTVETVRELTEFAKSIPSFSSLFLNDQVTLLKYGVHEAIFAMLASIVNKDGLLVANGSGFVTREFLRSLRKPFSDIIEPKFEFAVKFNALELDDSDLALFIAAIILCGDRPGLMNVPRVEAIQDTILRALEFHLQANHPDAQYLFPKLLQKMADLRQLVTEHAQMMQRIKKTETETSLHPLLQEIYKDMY

[6] = target: T2, PPARδ; assay: Activation of transient transfected PPAR δ in HEK293 cells (GAL4-hPPAR δ luciferase assay); format: cell-based; conditions: HEK293 transfected with GAL4-hPPAR δ, 24 h incubation
Description: Test Example 2: Experiment of the Compounds on Activation of Transient Transfected PPAR δ in HEK293 Cells
Plasmid: pcDNA3.1(+)-GAL4-hPPAR δ, customized by Nanjing Kebai Biotechnology Co., Ltd.
(§11) Liposome: PGL4.35, customized by Nanjing Kebai Biotechnology Co., Ltd.
(§12) Cell: human embryonic kidney cells HEK293, purchased from ATCC.
(§13) Transfection reagent: Lipofectamine Reagent 3000 purchased from Invitrogen.
(§14) Assay kit: Bright Glo™ Luciferase Assay System purchased from Promega.
(§15) HEK293 cells were incubated in DMEM medium containing 10% of fetal bovine serum at 37° C. in the presence of 5% of CO2. 3×10^5/ml cells were plated in each well of the 6-well plate. When the cell convergence degree reached 50%-80%, 5 μg of liposome PGL4.35 and 5 μg of expression plasmid pcDNA3.1(+)-GAL4-hPPAR δ were added to transfect the cells for 24 h and then the cells were collected. Then, the transfected cells were plated in the 96-well plate and the compounds of the application in different concentrations were added, incubated for 24 h, and Bright Glo™ Luciferase Assay System reagent for luciferase assay was added.
Target sequence in this assay (Q03181 whole entry, looked up): as the sequence (Q03181 whole entry) above

[7] = target: T1, PPARα; assay: Activation of transient transfected PPAR α in HEK293 cells (GAL4-hPPAR α luciferase assay); format: cell-based; conditions: HEK293 transfected with GAL4-hPPAR α, 24 h incubation
Description: Test example 1: Experiment of the compounds on activation of transient transfected PPAR α in HEK293 cells
Plasmid: pcDNA3.1(+)-GAL4-hPPAR α, customized by Nanjing Kebai Biotechnology Co., Ltd.
as §11, §12, §13, §14
as §15, with “α” for “δ”, “The” for “Then, the”, “reagent was added” for “reagent”, “assay.” for “assay was added.”
Target sequence in this assay (Q07869 whole entry, looked up): as the sequence (Q07869 whole entry) above

[8] = Cytotoxicity test on HepG2 cells (CellTiter Glo); format: cell-based; conditions: human, incubated for 3 days
Description: as §7, §8, §9, §10

[9] = tested on: MCD model of non-alcoholic steatohepatitis; assay: In vivo efficacy study in the MCD model of non-alcoholic steatohepatitis; set-up: species or system C57 Mice; conditions: MCD diet mice
Description: Test Example 6: In Vivo Efficacy Study of Compound in the MCD Model of Non-Alcoholic Steatohepatitis In this example, comparative test between compound GFT505 from WO2018133705A1 and compounds of the invention was conducted, so as to show the advantages of compounds of the invention. C57 Mice at 8-10 weeks of age (purchased from Vital River Laboratories) were body-weight matched and randomly divided into groups of normal, model, control and test. Mice in normal group were fed with standard chow for 9 weeks. Mice in model group, control group and test group were fed with MCD diet (Methionine-Choline Deficient Diet, Research Diets) for 9 weeks to induce NASH Model. During weeks 5-9 of the 9-week course of MCD diet, the control group and the test group were treated with GFT505 and TM4 of the invention, respectively, and the normal group and model group were treated with 0.5% MC. The dosage regimen was specified in table 5. [table] Animals were dissected after administration on day 35, livers were collected for H&E staining (hematoxylin-eosin staining) and sirius red staining. And then NAFLD activity score, including liver steatosis score, inflammation score and ballooning score, and liver fibrosis score were conducted.

[10] = 1 mg/kg intragastric once every day for 35 days
[11] = 1 mg/kg, 35 days, result in words

Chain of hERG potassium ion channel (Q12809 whole entry): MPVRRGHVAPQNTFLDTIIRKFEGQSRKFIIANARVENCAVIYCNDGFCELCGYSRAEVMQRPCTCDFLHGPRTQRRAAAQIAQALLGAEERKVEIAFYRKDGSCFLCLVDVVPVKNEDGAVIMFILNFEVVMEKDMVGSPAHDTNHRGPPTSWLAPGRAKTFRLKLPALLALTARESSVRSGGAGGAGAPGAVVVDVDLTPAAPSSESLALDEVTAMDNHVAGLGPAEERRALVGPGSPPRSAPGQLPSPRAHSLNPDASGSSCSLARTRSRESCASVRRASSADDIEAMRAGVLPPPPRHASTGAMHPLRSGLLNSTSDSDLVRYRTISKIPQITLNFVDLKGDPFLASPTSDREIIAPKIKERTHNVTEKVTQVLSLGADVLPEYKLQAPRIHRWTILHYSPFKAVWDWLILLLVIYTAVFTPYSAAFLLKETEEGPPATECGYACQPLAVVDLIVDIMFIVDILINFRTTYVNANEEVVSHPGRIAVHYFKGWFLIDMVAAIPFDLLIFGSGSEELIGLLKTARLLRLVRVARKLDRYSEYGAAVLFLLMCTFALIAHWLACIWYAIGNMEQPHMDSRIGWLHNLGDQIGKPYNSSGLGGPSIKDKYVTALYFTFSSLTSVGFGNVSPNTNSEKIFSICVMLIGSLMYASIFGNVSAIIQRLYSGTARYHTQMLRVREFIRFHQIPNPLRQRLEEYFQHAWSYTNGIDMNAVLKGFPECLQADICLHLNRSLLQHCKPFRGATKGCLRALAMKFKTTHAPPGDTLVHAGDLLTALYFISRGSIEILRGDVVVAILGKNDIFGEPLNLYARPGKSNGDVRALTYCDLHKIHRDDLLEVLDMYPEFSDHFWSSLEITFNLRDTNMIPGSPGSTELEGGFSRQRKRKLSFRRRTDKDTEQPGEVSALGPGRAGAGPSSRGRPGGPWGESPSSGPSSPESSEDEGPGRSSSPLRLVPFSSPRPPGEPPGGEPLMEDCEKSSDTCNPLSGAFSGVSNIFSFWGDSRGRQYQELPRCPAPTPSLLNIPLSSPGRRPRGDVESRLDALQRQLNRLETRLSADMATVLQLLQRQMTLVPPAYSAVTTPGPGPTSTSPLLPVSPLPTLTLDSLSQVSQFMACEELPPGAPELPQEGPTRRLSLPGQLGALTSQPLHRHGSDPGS

| Structure (SMILES) | IC50 [1] | EC50 [2] | CC50 at 3 days [3] | EC50 [4] | EC50 [5] | EC50 [6] | EC50 [7] | CC50 at 3 days [8] | Liver fibrosis score (Mean ± SD) [9, 10] | NAFLD activity score (Mean ± SD) [9, 10] | Reduction of NAFLD activity score compared with model group [9, 11] | Reduction of liver fibrosis score compared with model group [9, 11] |
| --- | --- | --- | --- | --- | --- | --- | --- | --- | --- | --- | --- | --- |
| COc1nc2ccccc2cc1C(=O)/C=C/c1cc(C)c(OC(C)(C)C(=O)O)c(C)c1 [Example 5, (E)-2-(4-(3-(2-methoxyquinolin-3-yl)-3-oxo-1-propen-1-yl)-2,6-dimethylphenoxy)-2-met hylpropionic acid] | > 10000 nM | 23 nM | 7130 nM | 174 nM | 797 nM | 556 nM | 28.3 nM | 13000 nM | 0.88 ± 0.35^b | 3.00 ± 0.93^b | significant reduction | significant reduction |
| COc1nc2ccccc2cc1C(=O)CCc1cc(C)c(OC(C)(C)C(=O)O)c(C)c1 [TM42, 2-(4-(3-(2-methoxyquinolin-3-yl)-3-oxopropyl)-2,6-dimethylphenoxy)-2-methylpropanoic acid] |  | 63 nM |  | 1950 nM | 496 nM |  |  |  |  |  |  |  |
